Reference: patent publication US10052368B2, “Pegylated tissue kallikrein, and preparation method therefor and uses thereof” (ZONHON BIOPHARMA INSTITUTE INC., priority 2013, dated 2018)
Entries after “also recorded” stand apart in the source; their conditions may differ.

Columns and labels:
[1] = Thermostability: activity after standing in a water bath at 65° C.; format: physicochemical; conditions: for thermostability in comparison with the original protein: 65° C. water bath, 0-30 min
Method: In order to confirm whether the PEG modification can increase the stability of kallikrein, the activity of the conjugates 1 and 3 and the original protein after standing for a period of time in a water bath at 65° C. was detected respectively in this example. The method specifically included the following steps. The conjugates 1 and 3 and the unmodified kallikrein dissolved in a PBS buffer at a protein concentration of 1 mg/mL were stood in a water bath at 65° C., sampled at 0 min, 2.5 min, 5 min, 7.5 min, 10 min, 20 min, 25 min, and 30 min respectively, and stored in freezer at […] for later use. After sampling, the biological activity was detected by employing the method (i.e., the method described in appendix IX F in Pharmacopoeia of People's Republic of China, Section 3, 2005 version).

[2] = test system: cerebral ischemia reperfusion model of middle cerebral artery obstruction (MCAO); test: Cerebral ischemia reperfusion model of middle cerebral artery obstruction (MCAO); format: in vivo; conditions: SD rats, 3 μg/kg once via vena caudalis; for Cerebral infarction area (%) / Score of neurologic deficit symptom: 24 h after reperfusion; for Cerebral infarction area (%): TTC staining; for Score of neurologic deficit symptom: improved Bederson 5-point system
Text: A cerebral ischemia reperfusion model of middle cerebral artery obstruction (MCAO) was established by thread embolizing the internal carotid artery of SD rats (purchased from Shanghai Sippr bk Laboratory Animal Co. LTD.) A positive control 1 group (urinary kallikrein, Guangdong Tianpu Biochemical Pharmaceutical Co., LTD.), a positive control 2 group (tPA, Shanghai Boehringer Ingelheim Pharmaceuticals Co., LTD), a model control group (PBS), a sham group, a kallikrein group (from Changzhou Qianhong Biochemical Pharmaceutical Co., LTD.), a conjugate 1 group, a conjugate 2 group, a conjugate 3 group, and a conjugate 4 group were arranged respectively. Administration by injection through vena caudalis was performed once at 3 μg/kg (calculated according to the protein amount) immediately after the cerebral ischemia reperfusion. Neurologic deficit symptoms were observed 24 h after the reperfusion, and the cerebral infarction area was determined. In the model group, an equal volume of PBS was injected through vena caudalis into the rat. In the sham group, only blood vessels were separated, no embolizing thread was inserted, and an equal volume of PBS was injected through vena caudalis into the rats. Neurologic deficit symptoms were evaluated employing an improved Bederson 5-point system method. Neurologic deficit symptoms of the rats after brain trauma were evaluated by a single-blind method, i.e., the animals were marked according to groups by designers of the experiment, and scores of the neurologic deficit symptoms were given by experimenters blind to the grouping situation. The cerebral infarction area was calculated employing the following method. Cerebrums of the SD rats were stained with TTC (2,3,5-triphenyltetrazolium chloride) and then the photographs were subjected to statistics using an image analysis software, and the percentage of cerebral infarction area was calculated according to the following formula: % cerebral infarction area=100×(total ischemic area/total area on the right side)

[3] = test system: db/db mice as animal models for diabetic nephropathy; test: Diabetic nephropathy model in db/db mice; format: in vivo; conditions: for 24-h urea nitrogen after administration, compared with the model group / 24-h urine creatinine after administration, compared with the model group / 24-h urine protein after administration, compared with the model group / 24-h urine volume after administration, compared with the model group: 2 μg/kg via vena caudalis, 2 months, original protein once a week, conjugate 3 once every 2 weeks
Method: db/db mice (purchased from Shanghai Slaccas Experimental Animal Co., LTD., grade SPF, 8-week aged, male, with a conformity certification No. of 2007000552656) were employed as animal models for diabetic nephropathy. A model group, a kallikrein (purchased from Changzhou Qianhong Biochemical Pharmaceutical Co., LTD.) original protein group and a conjugate 3 group were provided respectively. The administered dose was 2 μg/kg (calculated according to the protein amount), through vena caudalis, where the model group and the original protein group were dosed once a week, and the conjugate 3 group was dosed once every 2 weeks, for 2 continuous months before detection of urine volume, urine protein, urea nitrogen and urine creatinine. (Urine protein detection kits, urine creatinine detection kits, and urea nitrogen detection kits were all purchased from Nanjing Jiaticheng Bioengineering Co., LTD.)

[4] = Pharmacokinetics by 125I isotope labelling tracer method; format: in vivo; conditions: rats, 1.5 U/kg via vena caudalis; for T½β: 2-compartment model
Method: The in vivo blood drug concentrations of kallikrein before and after the PEG modification were studied employing a ^125I isotope labelling tracer method in this example. In order to reduce the absorption of the labelled drug by the thyroid gland of rats, 1 ml of a 1% KI (Sinopharm Group) solution was intraperitoneally injected about 8 hours before the experiment, to saturate the thyroid gland of the rats. The rats were randomly divided into 3 groups, i.e., a conjugate 3 group, a kallikrein group, and a urinary kallikrein group, 8 in each group, half male and half female (purchased from Experimental Animal Center of Zhejiang Province).
A particular operation method is as follows:
1. Hydroxy on the amino acid residue phenyl ring in a protein molecule is substituted with radioiodine, to obtain the above protein with ^125I having a radioactive tracing effect.
2. Numbering is performed on the rats using picric acid according to the numbering rule, and weighing is performed. After fixing with a rat fixer, administration is performed by injection through vena caudalis (1.5 U/kg). The rat is let go immediately after the dosage, and allowed to move around, drink water, and eat food freely.
3. 0.2 mL of blood is taken from eye sockets 1 min, 3 min, 10 min, 20 min, 40 min, 60 min, 2 h, 4 h, 8 h, 12 h, 24 h, 48 h, 72 h, 96 h, and 120 h respectively after the dosage, and EDTA is added therein for anticoagulation.
4. The rat plasma is subjected to centrifugal separation at 5000 rpm for 3 min, and determined for plasma radioactivity using a gamma counter (Anke Zhongjia, GC-911), for 1 min.
5. Plasma is recovered after radioactivity determination, and undegraded proteinogenous drugs are separated by HPLC (Shimadzu LC-20AT).

[5] = In vitro activity of PEG-KLK1 conjugates (BAEE degradation, absorbance change); format: biochemical; conditions: BAEE substrate, versus original unmodified protein
Text: N-benzoyl-L arginine ethyl ester hydrochloride (BAEE, purchased from sigma Inc.) may be degraded by Kallikrein, and the activity of kininogenase may be determined according to the change in the absorbance before and after the enzymatic reaction, see Pharmacopoeia of People's Republic of China, pages 850-851, Section 2, 2010 version for a particular determination method. Samples to be detected were, respectively, SC-PEG5000-KLK1 (conjugate 1), Y-PALD-20K-KLK1 (conjugate 2), Y-PALD-30K-KLK1 (conjugate 3), and Y-PALD-40K-KLK1 (conjugate 4) from Preparation Example 1, and the original unmodified protein.
The recombinant expressed low-molecular weight human kallikrein (hK1K1) from Example 10 was modified with a Y-PALD-30K modifier, and after the modification, a mono-modified product (Y-PALD-30K-hK1K1) was prepared according to the method described in Example 1. […] According to the experimental method in Example 2, the activity of human kallikrein (hK1K1) before and after the modification was determined.
The recombinant human kallikrein expressed in CHO cells prepared in Example 12 was modified with a Y-PALD-30K modifier, and after the modification, a mono-modified product (Y-PALD-30K-rhK1K1) was prepared according to the method described in Example 1. […] According to the experimental method in Example 2, the activity of human kallikrein before and after the modification was determined.

[6] = test system: anti-kallikrein antibody level in serum; design: species or system mice; conditions: mouse, in vivo, 1 mg/kg
Method: Relative immunogenicity of different PEG-KLK1 conjugates to mice was determined in this example, and compared with the original protein. The experiment was divided into a conjugate 2 group, a conjugate 3 group, a urinary kallikrein group and an original protein group. 1 mg/kg (calculated according to the protein amount) of the above protein was injected through vena caudalis into the mice at a frequency of twice a week, for 4 continuous weeks. Blood was taken from eye sockets 1 week after administration. The anti-kallikrein antibody level in serum was determined by […].

Substance | activity after standing for 10 min at 65° C. ([1]; 1 mg/mL in PBS, 65° C., 10 min) | amelioration of cerebral infarction status of the model animals (in words) [2] | Cerebral infarction area (%) [2] [%] | Score of neurologic deficit symptom [2] | 24-h urea nitrogen after administration, compared with the model group [3] | 24-h urine creatinine after administration, compared with the model group [3] | 24-h urine protein after administration, compared with the model group [3] | 24-h urine volume after administration, compared with the model group [3] | AUC [4] [ng·h/mL] | CL [4] [mL/min/kg] | V [4] [L/kg] | T½β [4] [h] | activity retained, of the activity of the original protein [5] [%] | thermostability in comparison with the original protein [1] | antibody titers on mice compared with kallikrein from porcine pancreas and urinary kallikrein [6] | activity after standing for 20 min at 65° C. ([1]; 1 mg/mL in PBS, 65° C., 20 min) | efficacy compared with the original protein group ([3]; conjugate 3 once every 2 weeks versus original protein once a week) | relative immunogenicity to mice compared with conjugate 2 [6]
Kallikrein | substantially lost | no apparent amelioration | 26.52 ± 3.67 | 2.41 ± 0.19 | significantly reduced | significantly reduced | significantly reduced | significantly reduced | 18.59 | 2.17 | 3.53 | 18.81 | – | – | – | – | – | –
Positive control 1: urinary kallikrein sourced from human urine, Guangdong Tianpu Biochemical Pharmaceutical [reference compound] | – | – | 24.49 ± 3.96 | 2.47 ± 0.21 | – | – | – | – | 11.68 | 3.5 | 5.16 | 17.49 | – | – | – | – | – | –
SC-PEG5000-KLK1 [Conjugate 1, reference compound] | – | only partially ameliorated; also recorded: slightly ameliorate | 27.67 ± 4.34 | 2.45 ± 0.27 | – | – | – | – | – | – | – | – | 81 | unobvious | – | – | – | –
Y-PALD-20K-KLK1 [Conjugate 2] | – | apparent protective effects; also recorded: better therapeutic effect | 21.34 ± 1.70 | 2.27 ± 0.24 | – | – | – | – | – | – | – | – | 83 | – | much lower | – | – | –
Y-PALD-30K-KLK1 [Conjugate 3] | – | apparent protective effects; also recorded: better therapeutic effect | 17.16 ± 4.07 | 2.10 ± 0.23 | significantly reduced | significantly reduced | significantly reduced | significantly reduced | 113.62 | 0.33 | 0.64 | 20.03 | 90 | significantly increased | much lower | still has a certain activity | apparently superior | slightly lower
Y-PALD-30K-hK1K1 | – | – | – | – | – | – | – | – | – | – | – | – | 85 | – | – | – | – | –
Y-PALD-30K-rhK1K1 | – | – | – | – | – | – | – | – | – | – | – | – | 88 | – | – | – | – | –
Y-PALD-40K-KLK1 [Conjugate 4] | – | essentially did not reduce; also recorded: no apparent amelioration | 31.27 ± 5.08 | 2.65 ± 0.34 | – | – | – | – | – | – | – | – | 86 | – | – | – | – | –
